Test results as given in patent US6369226B1, “Substituted benzamide inhibitors of rhinovirus 3C protease” (Agouron Pharmaceuticals, Inc., priority 1999, dated 2002).
Where two headings read alike, the source gives them in different places.

Key:
HRV-14 = assay: antiviral cytopathic effect assay employing H1-HeLa cells infected with HRV-14; format: cell-based, human rhinovirus serotype 14; conditions: for EC50: Rhinovirus B, HRV14, H1-HeLa
[1] = cytotoxicity (CC50) in the antiviral cell culture assay; conditions: human
HRV-14 3CP = biological target: T1, HRV-14 3CP (Human rhinovirus 14, UniProt P03303); assay: 3CP enzyme inhibition assay; format: biochemical; conditions: for kinact/KI: read-out: Kobs/[I]
T1 construct: The 2A and 3C protease (3CP) process this polyprotein into its functional viral proteins in HRV
Text: 3CP Inhibition Assays and Antiviral Assays The details of the 3CP enzyme assays used and the antiviral assays used are outlined in Dragovich, P. S., Webber, S. E, Babine, R. E., Fuhrman, S. A., Patick, A. K., Matthews, D. A., Lee, C. A., Reich, S. H., Prins, T. J., Marakovits, J. T., Littlefield, E. S., Zhou, R., Tikhe, J., Ford, C. E., Wallace, M. B., Meador, III, J. W., Ferre, R., Brown, E. L., Binford, S. L, Harr, , J. E. V., DeLisle, D. M. and Worland, S. T. Structure-Based Design, Synthesis, and Biological Evaluation of Irreversible Human Rhinovirus 3C Protease Inhibitors. 1. Michael Acceptor Structure-Activity Studies J. Med. Chem. 1998,41, 2806, the disclosure of which is incorporated by reference herein.

3CP = biological target: T2, 3CP (Human rhinovirus 14, UniProt P03303); assay: loss of 3CP inhibitory activity after exposure of compound to DTT; format: biochemical; conditions: for DTT inhib.: loss of 3CP inhibitory activity after exposure to 5 mM DTT for 2-3 min at 23° C.
T2 construct: The 2A and 3C protease (3CP) process this polyprotein into its functional viral proteins in HRV
Method: With this information in hand, additional esters were prepared and tested. It was anticipated that by filling the active site in the prime direction (S1′-S2′), additional affinity might be obtained. […] To determine whether the activity of the parent compound 1 was due to the inherent reactivity of the unsaturated ester, alternative substitutions were examined in the 1-position corresponding to the S1 recognition pocket. […] (Webber, S. E., Tikhe, J., Worland, S. T., Fuhrman, S. A., Hendrickson, T. F., Matthews, D. A., Love, R. A., Patick, A. K., Meador, J. W., Ferre, R. A., Brown, E. L., DeLisle, D. M., Ford, C. E., Binford, S. L. Design, Synthesis, and Evaluation of Nonpeptidic Inhibitors of Human Rhinovirus 3C Protease. J. Med. Chem. 1996, 39, 5072-5082.) Increased activation of the Michael acceptor toward nucleophilic addition, by alpha cyano substitution, led to a modest but reversible inhibitor, compound 9. Various unsaturated imides, also expected to be more reactive than an unsaturated ester, were poor inhibitors. Exploration of α,β-unsaturated ketones led to some interesting findings. […] When tested in the antiviral assay, ketones in general had greater toxicity (lower CC50) and no measurable antiviral effect. […] (Dragovich, P. S., Webber, S. E, Babine, R. E., Fuhrman, S. A., Patick, A. K., Matthews, D. A., Lee, C. A., Reich, S. H., Prins, T. J., Marakovits, J. T., Littlefield, E. S., Zhou, R., Tikhe, J., Ford, C. E., Wallace, M. B., Meador, III, J. W., Ferre, R., Brown, E. L., Binford, S. L, Harr, J.E. V., DeLisle, D. M. and Worland, S. T. Structure-Based Design, Synthesis, and Biological Evaluation of Irreversible Human Rhinovirus 3C Protease Inhibitors. 1. Michael Acceptor Structure-Activity Studies J. Med. Chem. 1998,41, 2806.) Electron-donating substituents at the 4-position of the phenyl ketone (4-Me2N—, 4-MeO—), were expected to make the ketones less reactive, however, no effect on their inactivation with DTT was observed. Similarly, heterocyclic ketones (2-pyridyl, 2-furyl) maintained their reactivity with DTT. In an attempt to make the inhibitors more compact, an indenone scaffold was designed. […] It became clear that while small, nonpeptidic α,β-unsaturated ketones such as compound 22 afforded potent […] inhibition of 3CP, this increased reactivity was incompatible with the more complex cellular milieu present in the cytopathic effect assay.

[2] = Table 1, Serotype 14, NI = no inhibition

T2 sequence (P03303 1538-1719): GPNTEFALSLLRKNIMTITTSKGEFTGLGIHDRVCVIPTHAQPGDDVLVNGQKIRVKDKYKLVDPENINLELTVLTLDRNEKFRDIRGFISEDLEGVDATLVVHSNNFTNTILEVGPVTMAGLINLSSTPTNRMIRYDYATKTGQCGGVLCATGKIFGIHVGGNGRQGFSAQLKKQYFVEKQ
T1 sequence (P03303 1538-1719): as above

Row | Compound | EC50 (HRV-14) [µM] | CC50 [1] [µM] | other results
1 | CCOC(=O)/C(C#N)=C/c1cccc(C(N)=O)c1 [Compound 9, (E)-3-(3-Carbamoyl-phenyl)-2-cyano-acrylic acid ethyl ester] | > 100 | > 100 | 
2 | CCOC(=O)C=Cc1cc(CN2CCN(c3ccccn3)CC2)cc(C(N)=O)c1 [Compound 26, 3-[3-Carbamoyl-5-(4-pyridin-2-yl-piperizin-1-methyl)-phenyl]-acrylic acid ethyl ester] |  |  | Kobs/[I] (HRV-14 3CP; Table 3, Serotype 14): 269 M⁻¹ s⁻¹
3 | NC(=O)c1cccc(C=CC(=O)c2ccccn2)c1 [Compound 20, 3-(3-Oxo-3-pyridin-2-yl-propenyl)-benzamide] | > 50 | > 50 | DTT inhib. (3CP): yes
4 | CCOC(=O)/C=C/c1cc(CO)cc(C(N)=O)c1 [Compound 13, 3-(3-Carbamoyl-5-hydroxymethyl-phenyl)-acrylic acid ethyl ester] | > 100 | > 100 | kinact/KI (HRV-14 3CP; [2]): 54 M⁻¹ s⁻¹
5 | CCOC(=O)/C=C/c1cc(C(N)=O)ccc1C [Compound 10, 6-Methyl-3-(3-carbamoylphenyl)-acrylic acid ethyl ester] | > 100 | > 100 | % inhibition (printed in the Kobs/[I] column) (HRV-14 3CP; @ 25 (concentration unit not given), Serotype 14): 10% @ 25
6 | CCOC(=O)C=Cc1ccc(OCc2ccccc2)c(C(N)=O)c1 [Compound 15, 3-(4-Benzyloxy-3-carbamoyl-phenyl)-acrylic acid ethyl ester] | > 320 | > 320 | kinact/KI (HRV-14 3CP; [2]): 30 M⁻¹ s⁻¹
7 | 3-[3-Carbamoyl-5-(5-pyridin-2-yl-[1,3,4]oxaldiazol-2-ylsulfanylmethyl-phenyl]-acrylic acid ethyl ester [Compound 25] |  |  | Kobs/[I] (HRV-14 3CP; Table 3, Serotype 14): 286 M⁻¹ s⁻¹
8 | CN(C)c1ccc(C(=O)/C=C/c2cccc(C(N)=O)c2)cc1 [Compound 18, 3-[3-(4-Dimethylamino-phenyl)-oxo-propenyl] benzamide] | > 15 | > 15 | DTT inhib. (3CP): yes
9 | CCOC(=O)C=Cc1cc(CN(CCC(=O)OCC)Cc2ccccc2)cc(C(N)=O)c1 [Compound 23, 3-(3-{[Benzyl-(2-ethoxycarbonyl-ethyl)-amino]-methyl}-5-carbamoyl-phenyl)-acrylic acid ethylester] | 10 | > 100 | kinact/KI (HRV-14 3CP; Table 3, Serotype 14): 568 M⁻¹ s⁻¹
10 | COc1ccc(C(=O)/C=C/c2cccc(C(N)=O)c2)cc1 [Compound 19, 3-[3-(4-Methoxy-phenyl)-oxo-propenyl] benzamide] | > 22 | > 22 | DTT inhib. (3CP): yes
11 | CCOC(=O)/C=C/c1cc(O)cc(C(N)=O)c1 [Compound 11, 3-(3-Carbamoyl-5-hydroxy-phenyl)-acrylic acid ethyl ester] | > 100 | > 100 | kinact/KI (HRV-14 3CP; [2]): 47 M⁻¹ s⁻¹; melting point: 200 to 202 °C
12 | CCOC(=O)C=Cc1cc(OCc2ccccc2)cc(C(N)=O)c1 [Compound 12, 3-(3-Benzyloxy-5-carbamoyl-phenyl)-acrylic acid ethyl ester] |  |  | melting point: 193 to 194 °C
13 | NC(=O)c1cccc(C=CC(=O)OCc2ccccc2)c1 [Compound 3, 3-(3-Carbamoyl-phenyl)-adrylic acid benzyl ester] |  |  | Kobs/[I] (HRV-14 3CP; [2]): 25 M⁻¹ s⁻¹; CC50 (H1-HeLa cells): > 100 µM
14 | CCOC(=O)C=Cc1cc(CN2CCN(c3ncccn3)CC2)cc(C(N)=O)c1 [Compound 29, 3-{3-Carbamoyl-5-(4-pyrimidin-2-yl-piperazin-1-ylmethyl)-phenyl}-acrylic acid ethyl ester] |  | > 100 | kinact/KI (HRV-14 3CP): 163 M⁻¹ s⁻¹; EC50 (HRV-14; Table 3, Serotype 14, read-out: EC50): 1 µM
15 | NC(=O)c1cccc(C=CC(=O)c2ccccc2)c1 [Compound 17, 3-(3-Oxo-3-phenyl-prop-1-enyl)-benzamide] | 28 | > 28 | DTT inhib. (3CP): yes
16 | NC(=O)c1cccc(C=CC(=O)c2ccco2)c1 [Compound 21, 3-(3-Furan-2-yl-3-oxo-propenyl)-benzamide] | > 71 | > 71 | DTT inhib. (3CP): yes
17 | NC(=O)c1cccc(C=O)c1 [Compound 1a, 3-Carbamoyl-benzaldehyde] |  |  | Ki (HRV-14 3CP): 104 µM
18 | NC(=O)c1cccc(C=CC(=O)OCc2cccnc2)c1 [Compound 6, 3-(3-Carbamoyl-phenyl)-acrylic acid pyridin-3-yl methyl ester] |  |  | Kobs/[I] (HRV-14 3CP; [2]): 57 M⁻¹ s⁻¹
19 | CCOC(=O)/C=C/c1cccc(C(N)=O)c1 [Compound 1, 3-(3-Carbamoylphenyl)-acrylic acid ethyl ester] | 15.9 | > 320 | kinact/KI (HRV-14 3CP): 52 M⁻¹ s⁻¹; melting point: 168 to 170 °C
20 | NC(=O)c1cccc(C=CC(=O)OCCO)c1 [Compound 4, 3-(3-Carbamoyl-phenyl)-acrylic acid 2-hydroxyethyl ester] | 20 | > 320 | kinact/KI (HRV-14 3CP; [2]): 42 M⁻¹ s⁻¹
21 | NC(=O)c1cccc(C=CC(=O)OCCc2ccccc2)c1 [Compound 5, 3-(3-Carbamoyl-phenyl)-acrylic acid phenethyl ester] | 100 | > 320 | kinact/KI (HRV-14 3CP; [2]): 83 M⁻¹ s⁻¹
22 | CCOC(=O)C=Cc1cc(CN2CCN(c3ccccc3C#N)CC2)cc(C(N)=O)c1 [Compound 30, 3-{3-Carbamoyl-5-[4-(2-cyano-phenyl)-piperazin-1-ylmethyl]-phenyl}-acrylicacid ethyl ester] | 0.6 | 79 | kinact/KI (HRV-14 3CP; Table 3, Serotype 14): 139 M⁻¹ s⁻¹; antiviral activity (in words) (HRV-14): submicromolar antiviral activity; EC50 (HRV-14; read-out: antiviral EC50): 0.6 µM
23 | CCOC(=O)C=Cc1cc(CN2CCN(C(=O)OCC)CC2)cc(C(N)=O)c1 [Compound 28, 4-[3-Carbamoyl-5-(2-ethoxycarbonyl-vinyl)-benzyl]-piperazine-1-carboxylic acid ethyl ester] | 1.8 | > 100 | kinact/KI (HRV-14 3CP): 130 M⁻¹ s⁻¹
24 | COC(=O)/C=C/c1cccc(C(N)=O)c1 [Compound 2, 3-(3-Carbamoyl-phenyl)-acrylic acid methyl ester] | 150 | > 320 | kinact/KI (HRV-14 3CP; [2]): 28 M⁻¹ s⁻¹; fold less active in the antiviral assay relative to ethyl ester compound 1 (HRV-14): 10 fold
25 | NC(=O)c1ccc2c(c1)C=CC2=O [Compound 22, 1-Oxo-1H-indene-5-carboxylic acid amide] | > 20 | > 20 | antiviral activity (in words) (HRV-14): no antiviral activity; DTT inhib. (3CP): yes; inactivation by DTT (in words) (3CP; upon incubation with DTT): inactivated by DTT; melting point: 275 °C (dec.)
26 | CC(=O)C=Cc1cccc(C(N)=O)c1 [Compound 16, 3-(3-Oxo-but-1-enyl)-benzamide] | 32 | 40 | DTT inhib. (3CP): yes
